Measured values published in patent publication US5391540A, “Substituted pyridine compounds” (Rohm and Haas Company, priority 1993, dated 1995).

Columns and labels:
Type in all cases: in vivo
Dobr = experiment: plant injury after spraying emerged plants (Table D)
Grft = experiment: as above; parameters: scale not given here
How it was run: (§1)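 Seeds or vegetative propagules of annual and perennial species were pressed into steam-sterilized silt loam, covered with 1.27 cm of topsoil/peat-moss/vermiculite mix, and grown on greenhouse benches with subirrigation. Injury was scored on emerged plants after spraying.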

Bygr = experiment: as above; parameters: scale not given here
How it was run: as §1

Prmi = experiment: as above; parameters: scale not given here
How it was run: as §1

Sobe = experiment: as above; parameters: scale not given here
How it was run: as §1

Grso = experiment: as above; parameters: scale not given here
How it was run: as §1

Lacg = experiment: as above; parameters: scale not given here
How it was run: as §1

Rice = experiment: as above; parameters: scale not given here
How it was run: as §1

Whez = experiment: as above; parameters: scale not given here
How it was run: as §1

Mogl = experiment: as above; parameters: scale not given here
How it was run: as §1

Yellow Nutsedge = experiment: Pre-emergent herbicidal activity (Table A); conditions: Cyperus, pre-emergence, Yens, 11.2 kg/ha, 10-14 days, read-out: herbicidal rating (% inhibition)
How it was run: (§2)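 Seeds or perennial propagules set on compacted topsoil, then covered with soil mixed with a known amount of test compound applied in acetone or water carrier. Ratings assigned on a scale based on percent inhibition of each species.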

Morningglory = experiment: Pre-emergent herbicidal activity (Table A); conditions: Ipomoea, pre-emergence, Mogl, 11.2 kg/ha, 10-14 days, read-out: herbicidal rating (% inhibition)
How it was run: as §2

Downy Brome = experiment: Pre-emergent herbicidal activity (Table A); conditions: Bromus tectorum, pre-emergence, Dobr, 11.2 kg/ha, 10-14 days, read-out: herbicidal rating (% inhibition)
How it was run: as §2

Barnyardgrass = experiment: Pre-emergent herbicidal activity (Table A); conditions: Echinochloa crus-galli, pre-emergence, Bygr, 11.2 kg/ha, 10-14 days, read-out: herbicidal rating (% inhibition)
How it was run: as §2

Velvetleaf = experiment: Pre-emergent herbicidal activity (Table A); conditions: Abutilon theophrasti, pre-emergence, Vele, 11.2 kg/ha, 10-14 days, read-out: herbicidal rating (% inhibition)
How it was run: as §2

Cocklebur = experiment: Pre-emergent herbicidal activity (Table A); conditions: Xanthium strumarium, pre-emergence, Cobu, 11.2 kg/ha, 10-14 days, read-out: herbicidal rating (% inhibition)
How it was run: as §2

What does the source list for COC(=O)c1c(OC)nc(C(F)(F)F)c(C2=NCCCS2)c1CC(C)C [Compound 98, 3-pyridinecarboxylic acid, 5-(5,6-dihydro-4H-1,3-thiazin-2-yl)-2-methoxy-4-(2-methylpropyl)-6-(trifluoromethyl)-, methyl ester]?
plant injury rating, Dobr (Dobr; 0.0701 kg/ha): 0; plant injury rating, Dobr (Dobr; 0.2803 kg/ha): 0; plant injury rating, Dobr (Dobr; 1.1210 kg/ha): 0; plant injury rating, Dobr (Dobr; 5.6050 kg/ha): 0; plant injury rating, Grft (Grft; 0.0701 kg/ha): 0; plant injury rating, Grft (Grft; 0.2803 kg/ha): 0; plant injury rating, Grft (Grft; 1.1210 kg/ha): 0; plant injury rating, Grft (Grft; 5.6050 kg/ha): 1; plant injury rating, Bygr (Bygr; 0.0701 kg/ha): 0; plant injury rating, Bygr (Bygr; 0.2803 kg/ha): 0; plant injury rating, Bygr (Bygr; 1.1210 kg/ha): 0; plant injury rating, Bygr (Bygr; 5.6050 kg/ha): 0; plant injury rating, Prmi (Prmi; 0.0701 kg/ha): 0; plant injury rating, Prmi (Prmi; 0.2803 kg/ha): 1; plant injury rating, Prmi (Prmi; 5.6050 kg/ha): 2; plant injury rating, Sobe (Sobe; 0.0701 kg/ha): 0; plant injury rating, Sobe (Sobe; 0.2803 kg/ha): 0; plant injury rating, Sobe (Sobe; 1.1210 kg/ha): 0; plant injury rating, Sobe (Sobe; 5.6050 kg/ha): 2; plant injury rating, Grso (Grso; 0.0701 kg/ha): 0; plant injury rating, Grso (Grso; 0.2803 kg/ha): 0; plant injury rating, Grso (Grso; 1.1210 kg/ha): 0; plant injury rating, Grso (Grso; 5.6050 kg/ha): 1; plant injury rating, Lacg (Lacg; 0.0701 kg/ha): 0; plant injury rating, Lacg (Lacg; 0.2803 kg/ha): 2; plant injury rating, Lacg (Lacg; 1.1210 kg/ha): 3; plant injury rating, Lacg (Lacg; 5.6050 kg/ha): 3; plant injury rating, Rice (Rice; 0.0701 kg/ha): 0; plant injury rating, Rice (Rice; 0.2803 kg/ha): 0; plant injury rating, Rice (Rice; 1.1210 kg/ha): 0; plant injury rating, Rice (Rice; 5.6050 kg/ha): 0; plant injury rating, Whez (Whez; 0.0701 kg/ha): 0; plant injury rating, Whez (Whez; 0.2803 kg/ha): 0; plant injury rating, Whez (Whez; 1.1210 kg/ha): 0; plant injury rating, Whez (Whez; 5.6050 kg/ha): 0; plant injury rating, Mogl (Mogl; 0.0701 kg/ha): 0; plant injury rating, Mogl (Mogl; 0.2803 kg/ha): 0; plant injury rating, Mogl (Mogl; 1.1210 kg/ha): 1; plant injury rating, Mogl (Mogl; 5.6050 kg/ha): 2; inhibition at 11200 g/ha (Yellow Nutsedge): 0 to 24%; inhibition at 11200 g/ha (Morningglory): 75 to 100%; inhibition at 11200 g/ha (Downy Brome): 75 to 100%; inhibition at 11200 g/ha (Barnyardgrass): 75 to 100%; inhibition at 11200 g/ha (Velvetleaf): 75 to 100%; inhibition at 11200 g/ha (Cocklebur): 0 to 24%

What does the source list for COC(=O)c1c(OC)nc(C(F)(F)F)c(-c2nnc(C)o2)c1CC(C)C [Compound 103, 3-pyridinecarboxylic acid, 2-methoxy-5-(5-methy1-1,3,4-oxadiazo1-2-yl)-4-(2-methylpropyl)-6-(trifluoromethyl)-, methyl ester]?
plant injury rating, Dobr (Dobr; 0.0701 kg/ha): 0; plant injury rating, Dobr (Dobr; 0.2803 kg/ha): 0; plant injury rating, Dobr (Dobr; 1.1219 kg/ha): 0; plant injury rating, Dobr (Dobr; 5.6050 kg/ha): 0; plant injury rating, Grft (Grft; 0.0701 kg/ha): 0; plant injury rating, Grft (Grft; 0.2803 kg/ha): 0; plant injury rating, Grft (Grft; 1.1219 kg/ha): 0; plant injury rating, Grft (Grft; 5.6050 kg/ha): 0; plant injury rating, Bygr (Bygr; 0.0701 kg/ha): 0; plant injury rating, Bygr (Bygr; 0.2803 kg/ha): 0; plant injury rating, Bygr (Bygr; 1.1219 kg/ha): 0; plant injury rating, Bygr (Bygr; 5.6050 kg/ha): 0; plant injury rating, Prmi (Prmi; 0.0701 kg/ha): 0; plant injury rating, Prmi (Prmi; 0.2803 kg/ha): 0; plant injury rating, Prmi (Prmi; 1.1219 kg/ha): 0; plant injury rating, Prmi (Prmi; 5.6050 kg/ha): 0; plant injury rating, Sobe (Sobe; 0.0701 kg/ha): 0; plant injury rating, Sobe (Sobe; 0.2803 kg/ha): 0; plant injury rating, Sobe (Sobe; 1.1219 kg/ha): 0; plant injury rating, Sobe (Sobe; 5.6050 kg/ha): 2; plant injury rating, Grso (Grso; 0.0701 kg/ha): 0; plant injury rating, Grso (Grso; 0.2803 kg/ha): 0; plant injury rating, Grso (Grso; 1.1219 kg/ha): 0; plant injury rating, Grso (Grso; 5.6050 kg/ha): 2; plant injury rating, Lacg (Lacg; 0.0701 kg/ha): 0; plant injury rating, Lacg (Lacg; 0.2803 kg/ha): 0; plant injury rating, Lacg (Lacg; 1.1219 kg/ha): 0; plant injury rating, Lacg (Lacg; 5.6050 kg/ha): 2; plant injury rating, Rice (Rice; 0.0701 kg/ha): 0; plant injury rating, Rice (Rice; 0.2803 kg/ha): 0; plant injury rating, Rice (Rice; 1.1219 kg/ha): 0; plant injury rating, Rice (Rice; 5.6050 kg/ha): 0; plant injury rating, Whez (Whez; 0.0701 kg/ha): 0; plant injury rating, Whez (Whez; 0.2803 kg/ha): 0; plant injury rating, Whez (Whez; 1.1219 kg/ha): 0; plant injury rating, Whez (Whez; 5.6050 kg/ha): 0; plant injury rating, Mogl (Mogl; 0.0701 kg/ha): 0; plant injury rating, Mogl (Mogl; 0.2803 kg/ha): 1; plant injury rating, Mogl (Mogl; 1.1219 kg/ha): 1; plant injury rating, Mogl (Mogl; 5.6050 kg/ha): 2; inhibition at 11200 g/ha (Yellow Nutsedge): 0 to 24%; inhibition at 11200 g/ha (Morningglory): 75 to 100%; inhibition at 11200 g/ha (Downy Brome): 50 to 74%; inhibition at 11200 g/ha (Barnyardgrass): 75 to 100%; inhibition at 11200 g/ha (Velvetleaf): 75 to 100%; inhibition at 11200 g/ha (Cocklebur): 0 to 24%

What does the source list for COC(=O)c1c(OC)nc(C(F)(F)F)c(C(=O)Cl)c1CC1CC1 [Compound 113, 3-pyridinecarboxylic acid, 5-(chlorocarbonyl)-4-(cyclopropylmethyl)-2-methoxy-6-(trifluoromethyl)-, methyl ester]?
plant injury rating, Dobr (Dobr; 0.2803 kg/ha): 0; plant injury rating, Dobr (Dobr; 1.1210 kg/ha): 0; plant injury rating, Dobr (Dobr; 5.6050 kg/ha): 0; plant injury rating, Grft (Grft; 0.2803 kg/ha): 0; plant injury rating, Grft (Grft; 1.1210 kg/ha): 0; plant injury rating, Grft (Grft; 5.6050 kg/ha): 0; plant injury rating, Bygr (Bygr; 0.2803 kg/ha): 0; plant injury rating, Bygr (Bygr; 1.1210 kg/ha): 0; plant injury rating, Bygr (Bygr; 5.6050 kg/ha): 0; plant injury rating, Prmi (Prmi; 0.2803 kg/ha): 0; plant injury rating, Prmi (Prmi; 1.1210 kg/ha): 0; plant injury rating, Prmi (Prmi; 5.6050 kg/ha): 0; plant injury rating, Sobe (Sobe; 0.2803 kg/ha): 0; plant injury rating, Sobe (Sobe; 1.1210 kg/ha): 0; plant injury rating, Sobe (Sobe; 5.6050 kg/ha): 1; plant injury rating, Grso (Grso; 0.2803 kg/ha): 0; plant injury rating, Grso (Grso; 1.1210 kg/ha): 0; plant injury rating, Grso (Grso; 5.6050 kg/ha): 0; plant injury rating, Lacg (Lacg; 0.2803 kg/ha): 0; plant injury rating, Lacg (Lacg; 1.1210 kg/ha): 0; plant injury rating, Lacg (Lacg; 5.6050 kg/ha): 2; plant injury rating, Rice (Rice; 0.2803 kg/ha): 0; plant injury rating, Rice (Rice; 1.1210 kg/ha): 0; plant injury rating, Rice (Rice; 5.6050 kg/ha): 0; plant injury rating, Whez (Whez; 0.2803 kg/ha): 0; plant injury rating, Whez (Whez; 1.1210 kg/ha): 0; plant injury rating, Whez (Whez; 5.6050 kg/ha): 0; plant injury rating, Mogl (Mogl; 0.2803 kg/ha): 0; plant injury rating, Mogl (Mogl; 1.1210 kg/ha): 0; plant injury rating, Mogl (Mogl; 5.6050 kg/ha): 1; inhibition at 11200 g/ha (Yellow Nutsedge): 0 to 24%; inhibition at 11200 g/ha (Morningglory): 25 to 49%; inhibition at 11200 g/ha (Downy Brome): 75 to 100%; inhibition at 11200 g/ha (Barnyardgrass): 75 to 100%; inhibition at 11200 g/ha (Velvetleaf): 25 to 49%; inhibition at 11200 g/ha (Cocklebur): 0 to 24%
